The values below come from patent US9475822B2, “Substituted 2- amidoquinazol-4-ones as matrix metalloproteinase-13 inhibitors” (Takeda Pharmaceutical Company Limited, priority 2004, dated 2016).

Read-outs that look alike come from different tables or passages of the source.

The target in data set [1] is T1, MMP-13 (Homo sapiens, UniProt P45452).
T1 construct: purchased GenzymeTechne
As to the kind of experiment: MMP-13 inhibitory activity (fluorogenic peptide substrate enzyme assay). Type of data set: biochemical. The conditions noted are these: substrate Cy3-PLGLK(Cy5Q)AR-NH2, 37° C., 40 min. How it is done:
To 10 μg of MMP-13 precursor (GenzymeTechne) was added 1 ml of assay buffer (50 mM Tris-HCl (pH 7.5), 10 mM CaCl2, 150 mM NaCl, 0.05% Brij-35), and 4-aminophenylmercuric acid (Sigma) was added to the final concentration of 1 mM. The MMP-13 precursor was activated by incubating at 37° C. for 2 hrs.
In a 96 well black plate (Corning), to 6.3 ng/ml of MMP-13 solution (49 μl) diluted with assay buffer was added the test compound (1 μl) diluted with dimethyl sulfoxide (DMSO) and 620 nM Cy3-PLGLK(Cy5Q)AR—NH2 (50 μl, synthesized by Amersham Biosciences) in assay buffer was added to start the enzyme reaction. After incubation at 37° C. for 40 min, 500 mM EDTA solution (6 μl) was added to stop the reaction. For measurement, Farcyte (Amersham Biosciences) was used to measure at excitation wavelength 535 nm and measurement wavelength 595 nm.
T: value of well with addition of DMSO instead of test compound
C: value of well with addition of DMSO instead of test compound and addition of EDTA solution before addition of substrate solution
X: value of well with addition of test compound

Where [2] appears, read: compound 1 μM, read-out: MMP-13 activity inhibitory rate (%).
Setting [3] is: read-out: MMP-13 activity inhibitory rate (%), compound 1 μM.

In turn, `COc1cccc(CNC(=O)c2nc3cnn(CCOc4ccc(C(=O)O)cc4)c3c(=O)[nH]2)c1` [Example 250, 4-[2-(5-{[(3-methoxybenzyl)amino]carbonyl}-7-oxo-6,7-dihydro-1H-pyrazolo[4,3-d]pyrimidin-1-yl)ethoxy]benzoic acid] came in with a melting point of 230 to 231 °C.

As to `Cc1cc(CNC(=O)c2nc3scc(COCc4ccc(C(=O)O)cc4)c3c(=O)[nH]2)ccc1F` [Example 341, 4-[({[2-({[(4-fluoro-3-methylphenyl)methyl]amino}carbonyl)-4-oxo-3,4-dihydrothieno[2,3-d]pyrimidin-5-yl]methyl}oxy)methyl]benzoic acid], the inhibition at 1 µM in data set [1] (setting [2]) is 98%.

`COc1cccc(CNC(=O)c2nc3scc(COCc4ccc(C(=O)O)cc4)c3c(=O)[nH]2)c1` [Example 386, Dipotassium 4-{[({2-[({[3-(methyloxy)phenyl]methyl}amino)carbonyl]-4-oxo-4H-thieno[2,3-d]pyrimidin-3-id-5-yl}methyl)oxy]methyl}benzoate]: the “MMP-13 activity inhibitory rate (%)” value in data set [1] (compound 1 μM, 1 µM) was determined as 94%.

For the molecule `COc1cccc(CNC(=O)c2nc3ccc(N)cc3c(=O)[nH]2)c1` [Example 100, 6-amino-N-{[3-(methyloxy)phenyl]methyl}-4-oxo-3,4-dihydroquinazoline-2-carboxamide], the melting point fell in the range of 223 to 225 °C.

As to `COc1cccc(CNC(=O)c2nc3ccccc3c(=O)[nH]2)c1` [Example 1, N-{[3-(methyloxy)phenyl]methyl}-4-oxo-3,4-dihydroquinazoline-2-carboxamide], the inhibition at 1 µM in data set [1] (setting [2]) came out at 91%.

In the case of `COc1cccc(CNC(=O)c2nc3cnn(CCCc4ccccc4)c3c(=O)[nH]2)c1` [Example 243, N-(3-methoxybenzyl)-7-oxo-1-(3-phenylpropyl)-6,7-dihydro-1H-pyrazolo[4,3-d]pyrimidine-5-carboxamide], the melting point was in the range of 138 to 140 °C.

As to `COc1cccc(CNC(=O)c2nc3ccc(F)c(OCCc4ccc(C(=O)O)cc4)c3c(=O)[nH]2)c1` [Example 286, Sodium 4-[2-({6-fluoro-2-[({[3-(methyloxy)phenyl]methyl}amino)carbonyl]-4-oxo-3,4-dihydroquinazolin-5-yl}oxy)ethyl]benzoate], the inhibition at 1 µM in data set [1] (setting [3]) came out at 97%.

For `COc1cccc(CNC(=O)c2nc3ccc(Cl)cc3c(=O)[nH]2)c1` [Example 83, 6-chloro-N-{[3-(methyloxy)phenyl]methyl}-4-oxo-3,4-dihydroquinazoline-2-carboxamide], the melting point lay within 203 to 206 °C.

Take `CCOc1cccc(CNC(=O)c2nc3scc(COCc4ccc(C(=O)O)cc4)c3c(=O)[nH]2)c1` [Example 366, 4-{[({2-[({[3-(ethyloxy)phenyl]methyl}amino)carbonyl]-4-oxo-3,4-dihydrothieno[2,3-d]pyrimidin-5-yl}methyl)oxy]methyl}benzoic acid]: the inhibition at 1 µM in data set [1] (setting [2]) amounted to 93%.

`COc1cccc(CNC(=O)c2nc3ccc(I)cc3c(=O)[nH]2)c1` [Example 104, 6-iodo-N-{[3-(methyloxy)phenyl]methyl}-4-oxo-3,4-dihydroquinazoline-2-carboxamide]: the melting point is 219 to 220 °C.

Regarding `COc1cccc(CNC(=O)c2nc3ccc(F)c(OCCc4ccc(C(=O)O)cc4)c3c(=O)[nH]2)c1` [Example 179, 4-[2-({6-Fluoro-2-[({[3-(methyloxy)phenyl]methyl}amino)carbonyl]-4-oxo-3,4-dihydroquinazolin-5-yl}oxy)ethyl]benzoic acid], the inhibition at 1 µM in data set [1] (setting [2]) was 99%.

As for `COc1cccc(CNC(=O)c2nc3ccc(CN4CCOCC4)cc3c(=O)[nH]2)c1` [Example 116, N-{[3-(methyloxy)phenyl]methyl}-6-(morpholin-4-ylmethyl)-4-oxo-3,4-dihydroquinazoline-2-carboxamide], the melting point fell in the range of 126 to 129 °C.

As to `COc1cc(CNC(=O)c2nc3cnn(CCCc4ccccc4)c3c(=O)[nH]2)ccc1F` [Example 244, N-(4-fluoro-3-methoxybenzyl)-7-oxo-1-(3-phenylpropyl)-6,7-dihydro-1H-pyrazolo[4,3-d]pyrimidine-5-carboxamide], the melting point was 155 to 157 °C.

In turn, `CCOC(=O)Cc1csc2nc(C(=O)NCc3cccc(OC)c3)[nH]c(=O)c12` [Example 251, ethyl (2-{[(3-methoxybenzyl)amino]carbonyl}-4-oxo-3,4-dihydrothieno[2,3-d]pyrimidin-5-yl)acetate] registered a melting point of 169 to 171 °C.

On to `COc1cccc(CNC(=O)c2nc3scc(COCc4ccc(C(=O)[O-])cc4)c3c(=O)[n-]2)c1.[Na+].[Na+]` [Example 384, Disodium 4-{[({2-[({[3-(methyloxy)phenyl]methyl}amino)carbonyl]-4-oxo-4H-thieno[2,3-d]pyrimidin-3-id-5-yl}methyl)oxy]methyl}benzoate], for which the “MMP-13 activity inhibitory rate (%)” value in data set [1] (compound 1 μM) was 91%.

Turning to `COc1cccc(CNC(=O)c2nc3scc(COCc4ccc(C(=O)O)cc4)c3c(=O)[nH]2)c1` [Example 383, Sodium 4-{[({2-[({[3-(methyloxy)phenyl]methyl}amino)carbonyl]-4-oxo-3,4-dihydrothieno[2,3-d]pyrimidin-5-yl}methyl)oxy]methyl}benzoate], the inhibition at 1 µM in data set [1] (setting [3]) was 91%.

As for `COc1cccc(CNC(=O)c2nc3scc(COCc4ccc(C(=O)[O-])cc4)c3c(=O)[nH]2)c1.[K+]` [Example 385, Potassium 4-{[({2-[({[3-(methyloxy)phenyl]methyl}amino)carbonyl]-4-oxo-3,4-dihydrothieno[2,3-d]pyrimidin-5-yl}methyl)oxy]methyl}benzoate], the “MMP-13 activity inhibitory rate (%)” value in data set [1] (compound 1 μM) came out at 96%.

Turning to `COc1cccc(CNC(=O)c2nc3scc(COCc4ccc(C(=O)O)cc4)c3c(=O)[nH]2)c1` [Example 217, 4-{[({2-[({[3-(methyloxy)phenyl]methyl}amino)carbonyl]-4-oxo-3,4-dihydrothieno[2,3-d]pyrimidin-5-yl}methyl)oxy]methyl}benzoic acid], the “MMP-13 activity inhibitory rate (%)” value in data set [1] (compound 1 μM, 1 µM) amounted to 100%.

`CCOC(=O)Cc1ccc(OCc2csc3nc(C(=O)NCc4cccc(OC)c4)[nH]c(=O)c23)cc1` [Example 256, ethyl {4-[(2-{[(3-methoxybenzyl)amino]carbonyl}-4-oxo-3,4-dihydrothieno[2,3-d]pyrimidin-5-yl)methoxy]phenyl}acetate] gave a melting point of 175 to 178 °C.

`COc1cccc(CNC(=O)c2nc3scc(COc4ccc(CC(=O)O)cc4)c3c(=O)[nH]2)c1` [Example 257, {4-[(2-{[(3-methoxybenzyl)amino]carbonyl}-4-oxo-3,4-dihydrothieno[2,3-d]pyrimidin-5-yl)methoxy]phenyl}acetic acid] came in with a melting point of 228 to 230 °C.

On to `COc1cccc(CNC(=O)c2nc3sccc3c(=O)[nH]2)c1` [Example 209, N-{[3-(methyloxy)phenyl]methyl}-4-oxo-3,4-dihydrothieno[2,3-d]pyrimidine-2-carboxamide], for which, in data set [1] (setting [2]), the inhibition at 1 µM stood at 94%.

For `O=C(O)c1ccc(COCc2csc3nc(C(=O)NCc4ccc(F)c(Cl)c4)[nH]c(=O)c23)cc1` [Example 339, 4-[({[2-({[(3-chloro-4-fluorophenyl)methyl]amino}carbonyl)-4-oxo-3,4-dihydrothieno[2,3-d]pyrimidin-5-yl]methyl}oxy)methyl]benzoic acid], the inhibition at 1 µM in data set [1] (setting [2]) was determined as 96%.

As to `COc1cccc(CNC(=O)c2nc3ccc(F)c(OCCc4ccc(C(=O)[O-])cc4)c3c(=O)[n-]2)c1.[Na+].[Na+]` [Example 287, Disodium 4-[2-({6-fluoro-2-[({[3-(methyloxy)phenyl]methyl}amino)carbonyl]-4-oxo-4H-quinazolin-3-id-5-yl}oxy)ethyl]benzoate], the “MMP-13 activity inhibitory rate (%)” value in data set [1] (compound 1 μM) is listed as 98%.
